Patent US20080102476A1, “Analyzing Histamine H4 Receptor-Mediated Effects In Whole Blood” (priority 2003, published 2008)
Where two headings read alike, the source gives them in different places.

Tests used:
[1] = tested on: eosinophils in human whole blood; test: Whole blood eosinophil shape change assay with ranitidine co-treatment (Example 1B); assay type: cell-based; conditions: FIG. 11
Experimental: In this example, starting materials were obtained as described in Example 1A. Human whole blood samples were used to study eosinophil shape change response. Human blood samples collected from healthy donors were treated with 3.8% tri-sodium citrate as anti-coagulator (or other anti-coagulators) and centrifuges at 300 rpm. The samples were used for experiments within 1 hour. […] The cell shape change was analyzed on a FACScan flow cytometer (Becton Dickinson, Mountain View, Calif.). Eosinophils were gated based on their high autofluorescence relative to neutrophils and shape change was monitored in forward scatter signals. Data were acquired for 1500 high-fluorescence eosinophil events. Results are expressed as the percentage increase in FSC compared to unstimulated cells.

[2] = tested on: human eosinophils; test: Cell surface expression of adhesion molecules on eosinophils by flow cytometry; assay type: cell-based; conditions: for effect on histamine-induced up-regulation of CD11b/CD18 and CD54 expression: antagonist 10 μM
Experimental: Purified eosinophils were used to study cell surface expression of adhesion molecules. Eosinophils were resuspended in PBS containing 10 mM Ca^2+ and Mg^2+, 10 mM HEPES, 10 mM glucose, and 0.1% BSA, pH 7.2-7.4. Aliquots of cells (5×10^5 PMNL) were pretreated with histamine receptor analogues (as described above) for 10 min before addition of histamine or chemokines in 1.2-ml polypropylene cluster tubes (Costar, Cambridge, Mass.) in a final volume of 100 μl. The tubes were placed in a 37° C. water bath for 10 min (or as indicated), after which they were transferred to an ice-water bath, and 250 μl of ice-cold fixative (0.5% paraformaldehyde in PBS) was added. Samples were then incubated on ice for 30 min with saturating concentration of either FITC or phycoerytherine-conjugated anti-CD11a, anti-CD11b or anti-CD54 antibodies, washed, and then analyzed by flow cytometry.

[3] = tested on: eosinophils in human whole blood; test: Whole blood eosinophil shape change GAFS assay (Example 1A); assay type: cell-based
Experimental: Starting materials were obtained as described in the experiments above. Human whole blood samples were used to study eosinophil shape change response. Human blood samples collected from healthy donors were treated with 3.8% tri-sodium citrate as anti-coagulator (or other anti-coagulators) and centrifuges at 300 rpm. The samples were used for experiments within 1 hour. Aliquots of 80 μl whole blood were pretreated with histamine receptor analogues (such as H1 receptor antagonist diphenhydramine, H2 antagonist ranitidine, H4 receptor antagonists thioperamide and Compound A, and H3 receptor antagonist Compound B) for 10 minutes before addition of histamine or chemokines in 1.2-ml polypropylene cluster tubes (Costar, Cambridge, Mass.) in a final volume of 100 μl. The tubes were placed in a 37° C. water bath for 10 min, after which they were transferred to an ice-water bath, and 250 μl of ice-cold fixative (2% paraformaldehyde in PBS or other fixatives) was added to terminate the reaction and to maintain the cell shape change. Red cells were lysed with 3 ml Qiagen lysis solution (Qiagen, Valencia, Calif.) for 10 minutes at 4° C. Leukocytes were recovered by centrifugation at 2000 rpm for 5 minutes, washed once with either PBS containing 10 mM Ca^2+ and Mg^2+, 10 mM HEPES, 10 mM glucose, and 0.1% BSA (for FIGS. 10 and 11) or PBS containing 0.5% BSA and 2 mM EDTA (for other figures), and then resuspended in the same buffer. The cell shape change was analyzed on a FACScan flow cytometer (Becton Dickinson, Mountain View, Calif.). Eosinophils were gated based on their high autofluorescence relative to neutrophils and shape change was monitored in forward scatter signals. Data were acquired for 1500 high-fluorescence eosinophil events. The results are expressed as the percentage increase in FSC compared to unstimulated cells. Results obtained are provided in the Tables I and II, below, which also correspond to FIG. 7 and FIG. 8, respectively.

[4] = tested on: purified human eosinophils; test: In vitro eosinophil chemotaxis assay (Transwell); assay type: cell-based; conditions: for effect on histamine-induced eosinophil chemotaxis: antagonist 10 μM in both chambers
Experimental: Transwells (Costar, Cambridge, Mass.) with 5 μm pore size were coated with 100 μl of 100 ng/ml human fibronectin (Sigma) for 2 h at room temperature. After removal of excess fibronectin, 600 μl of RPMI-1640 medium containing 0.5% BSA and different concentrations of histamine (0.01-100 μM) was added to the bottom chamber, Eosinophils (2×10^5/well) were added to the top chamber. Histamine receptor analogues (diphenhydramine, ranitidine, thioperamide, Compound A or Compound B) were added to both the top and bottom chambers to a final concentration of 10 μM or at other concentration as stated in figure legends. The plates were incubated for 2 h at 37° C. and the number of cells migrated to the bottom chamber was counted for 1 min using flow cytometer.

[5] = tested on: human eosinophils; test: Eosinophil shape change in human PMNL by flow cytometry (GAFS assay); assay type: cell-based; conditions: for IC50: Homo sapiens, Eosinophil, 1 μM histamine, FIG. 4B; for effect on histamine-induced eosinophil shape change: antagonist 10 μM, 1 μM histamine 10 min
Experimental: PMNL were prepared as described above and cells were resuspended in assay buffer (PBS containing 10 mM Ca^2+ and Mg^2+, 10 mM HEPES, 10 mM glucose, and 0.1% BSA, pH 7.2-7.4). Aliquots of cells (5×10^5 PMNL in 80 μl assay buffer) were pretreated with histamine receptor analogues (diphenhydramine, ranitidine, thioperamide, Compound A or H3 receptor antagonist) for 10 min at room temperature before addition of histamine or chemokines in 1.2-ml polypropylene cluster tubes (Costar, Cambridge, Mass.) in a final volume of 100 μl. The tubes were placed in a 37° C. water bath for 10 min (or as indicated), after which they were transferred to an ice-water bath, and 250 μl of ice-cold fixative (2% paraformaldehyde in PBS) was added to terminate the reaction and to maintain the cell shape change. […] Cell shape change was monitored in forward scatter signals. To identify eosinophils and neutrophils in PMNL, cells were stained on ice for 30 min with saturating concentrations of FITC-conjugated anti-CCR3 or anti-CD16 antibodies, which are specific for eosinophils or neutrophils, respectively. Samples after antibody staining were analyzed in flow cytometry.

[6] = cited from earlier work
[7] = tested on: human neutrophils; conditions: 1 μM, 10 min
Experimental: Human PMNL samples were used to study eosinophil shape change response. PMNL were prepared as described above and cells were resuspended in assay buffer (PBS containing 10 mM Ca^2+ and Mg^2+, 10 mM HEPES, 10 mM glucose, and 0.1% BSA, pH 7.2-7.4). Aliquots of cells (5×10^5 PMNL in 80 μl assay buffer) were pretreated with histamine receptor analogues (diphenhydramine, ranitidine, thioperamide, Compound A or H3 receptor antagonist) for 10 min at room temperature before addition of histamine or chemokines in 1.2-ml polypropylene cluster tubes (Costar, Cambridge, Mass.) in a final volume of 100 μl. […] The cell shape change was analyzed with the flow cytometer (Becton Dickinson, Mountain View, Calif.). […] Cell shape change was monitored in forward scatter signals. […] Samples after antibody staining were analyzed in flow cytometry.
The analysis of eosinophil cell shape change by flow cytometry, known as gated autofluorescence forward scatter (GAFS) assay, allows a quantitative measurement of cell shape change induced by chemoattractants (Sabroe et al., 1999, “Differential regulation of eosinophil chemokine signaling via CCR3 and non-CCR3 pathways,” J. Immunol., 162, 2946-2955). […]

[8] = histamine 0.1 uM + compound A 10 uM
[9] = histamine 1 uM + compound A 10 uM
[10] = histamine 10 uM + compound A 10 uM
[11] = histamine 0.1 uM alone, lower part
[12] = histamine 1 uM alone, lower part
[13] = histamine 10 uM alone, lower part
[14] = after histamine treatment, FIG. 3A

Q: Which “effect on H4 receptor-dependent shape change (histamine + ranitidine)” value [1] does the source give for `CN1CCN(C(=O)c2cc3cc(Cl)ccc3[nH]2)CC1` [Compound A, (5-chloro-1H-indol-2-yl)-(4-methyl-piperazin-1-yl)-methanone] here?
A: antagonized

Q: What about the “effect on histamine-induced up-regulation of CD11b/CD18 and CD54 expression” value [2] of the same compound?
A: abolished

Q: And the “GeoMean (FSC of eosinophils)” value ([3]; histamine 0.00 uM + Compound A 10 uM)?
A: 268.1

Q: What about the “% change (increase in FSC compared to unstimulated cells)” value ([3]; histamine 0 uM + compound A 10 uM) of the same compound?
A: 0.0%

Q: And the “% change (increase in FSC compared to unstimulated cells)” value [3, 8]?
A: 1.5%

Q: What about the “GeoMean (FSC of eosinophils)” value [3, 8] of the same compound?
A: 272.1

Q: And the “% change (increase in FSC compared to unstimulated cells)” value [3, 9]?
A: 1.1%

Q: What about the “GeoMean (FSC of eosinophils)” value [3, 9] of the same compound?
A: 270.9

Q: What about the “% change (increase in FSC compared to unstimulated cells)” value [3, 10] of the same compound?
A: −0.3%

Q: What about the “GeoMean (FSC of eosinophils)” value [3, 10] of the same compound?
A: 267.3

Q: What about the “effect on eosinophil shape changes induced by histamine from 0.1 to 10 μM” value ([3]; whole blood, FIG. 8) of the same compound?
A: blocked

Q: What about the IC50 ([4]; Homo sapiens, Eosinophil, 1 μM histamine in lower chamber, read-out: IC50 in blocking 1 μM histamine-induced eosinophil chemotaxis) of the same compound?
A: 86 nM

Q: And the “effect on histamine-induced eosinophil chemotaxis” value [4]?
A: inhibited completely

Q: What about the IC50 ([5]; read-out: IC50 in blocking 1 μM histamine-induced eosinophil shape change) of the same compound?
A: 270 nM

Q: What about the “effect on histamine-induced eosinophil shape change” value [5] of the same compound?
A: blocked the histamine-induced eosinophil shape change completely

Q: Which results are given for `Cc1ccn2cc(-c3ccc(OCCCN4CCCCC4)cc3)nc2c1` [Compound B, 7-methyl-2-[4-(3-piperidin-1-yl-propoxy)-phenyl]-imidazo[1,2-a]pyridine]?
A: effect on histamine-induced up-regulation of CD11b/CD18 and CD54 expression [2]: ineffective; effect on histamine-induced eosinophil chemotaxis [4]: minimal; IC50 ([5]; read-out: IC50 in blocking 1 μM histamine-induced eosinophil shape change (ineffective up to)): > 30000 nM; effect on histamine-induced eosinophil shape change [5]: did not show any inhibitory effects

Q: Which results are given for `NC(=NCc1ccc(Cl)cc1)SCCCc1cnc[nH]1` [clobenpropit]?
A: agonist effect on eosinophil shape change in whole blood ([3]; FIGS. 9A and 9B): mimic histamine in inducing eosinophil shape change; agonist effect on eosinophil shape change ([5]; FIG. 4C): partial shape change

Q: With `CN(C)CCOC(c1ccccc1)c1ccccc1` [diphenhydramine] as the compound, how does the “effect on histamine-induced up-regulation of CD11b/CD18 and CD54 expression” value [2] read?
A: ineffective

Q: And the “effect on histamine-induced eosinophil chemotaxis” value [4]?
A: minimal

Q: What about the “effect on histamine-induced eosinophil shape change” value [5] of the same compound?
A: did not show any inhibitory effects

Q: With `NCCc1c[nH]cn1` [histamine, 4-(2-amino-ethyl)imidazole] as the compound, how does the half-life in serum [6] read?
A: around 1 min

Q: What about the “expression of CD11a/CD18 (LFA-1) on eosinophils” value [2] of the same compound?
A: not induced

Q: What about the “optimal concentration for maximal up-regulation of CD11b/CD18 and CD54” value ([2]; 10-minute stimulation) of the same compound?
A: 10 µM

Q: And the “cell surface expression of CD11b/CD18 (Mac-1) and CD54 (ICAM-1) on eosinophils” value ([2]; 10 min, 37° C.)?
A: induced by histamine in a concentration-dependent manner

Q: What about the “persistence of the increase in cell surface adhesion molecules” value ([2]; 60 minutes incubation) of the same compound?
A: maintained

Q: And the “% change (increase in FSC compared to unstimulated cells)” value ([3]; histamine 0.01 uM, upper part)?
A: 6.1%

Q: What about the “GeoMean (FSC of eosinophils)” value ([3]; histamine 0.01 uM, upper part) of the same compound?
A: 239.8

Q: And the “% change (increase in FSC compared to unstimulated cells)” value [3, 11]?
A: 20.1%

Q: What about the “GeoMean (FSC of eosinophils)” value [3, 11] of the same compound?
A: 327.7

Q: And the “% change (increase in FSC compared to unstimulated cells)” value ([3]; histamine 0.1 uM, upper part)?
A: 20.0%

Q: What about the “GeoMean (FSC of eosinophils)” value ([3]; histamine 0.1 uM, upper part) of the same compound?
A: 271.3

Q: And the “% change (increase in FSC compared to unstimulated cells)” value [3, 12]?
A: 18.0%

Q: What about the “GeoMean (FSC of eosinophils)” value [3, 12] of the same compound?
A: 321.9

Q: And the “% change (increase in FSC compared to unstimulated cells)” value ([3]; histamine 1 uM, upper part)?
A: 16.4%

Q: And the “GeoMean (FSC of eosinophils)” value ([3]; histamine 1 uM, upper part)?
A: 263.3

Q: What about the “% change (increase in FSC compared to unstimulated cells)” value [3, 13] of the same compound?
A: 11.1%

Q: And the “GeoMean (FSC of eosinophils)” value [3, 13]?
A: 303.3

Q: And the “% change (increase in FSC compared to unstimulated cells)” value ([3]; histamine 10 uM, upper part)?
A: 17.2%

Q: What about the “GeoMean (FSC of eosinophils)” value ([3]; histamine 10 uM, upper part) of the same compound?
A: 265.0

Q: What about the “% change (increase in FSC compared to unstimulated cells)” value ([3]; histamine 100 uM, upper part) of the same compound?
A: 30.8%

Q: And the “GeoMean (FSC of eosinophils)” value ([3]; histamine 100 uM, upper part)?
A: 295.8

Q: And the “concentration at which a significant eosinophil shape change was detected” value ([3]; whole blood, FIG. 7)?
A: ~0.1 µM

Q: What about the “effect on eosinophil chemotaxis induced by eotaxin-2 and MCP-3” value ([4]; 0.5 μM histamine) of the same compound?
A: enhanced

Q: What about the EC50 ([4]; Homo sapiens, Eosinophil, Transwell, 2 h) of the same compound?
A: 83 nM

Q: What about the “concentration for maximal chemotactic effect on eosinophils” value ([4]; Transwell) of the same compound?
A: 1 µM

Q: What about the “nature of the effect on eosinophil migration” value ([4]; disruption of concentration gradient) of the same compound?
A: chemotactic but not chemokinetic

Q: What about the “cell shape change on eosinophils” value ([5]; 1 μM, 10 min) of the same compound?
A: significant cell shape change

Q: What about the “eosinophil shape change at 100 μM histamine” value ([5]; 100 μM) of the same compound?
A: no shape change

Q: And the “earliest time at which eosinophil shape change is detected” value [5, 14]?
A: 1 min

Q: And the “time of maximal eosinophil shape change” value [5, 14]?
A: 5 min

Q: And the “time of return to the original cell shape” value [5, 14]?
A: 40 min

Q: And the “combined effect on eosinophil shape change” value ([5]; histamine combined with MCP-3, sub-optimal concentrations)?
A: Partial additive effects

Q: And the “optimal concentration for maximal shape change on eosinophils” value ([5]; human PMNL, 10 min)?
A: ~1 µM

Q: What about the EC50 ([5]; human PMNL, FIG. 3D) of the same compound?
A: 44 nM

Q: And the “cell shape change on neutrophils” value [7]?
A: no effects
